Key:
A-375 = assay: In vitro antitumor activity against A375cell line extracted form melanoma; assay type: functional, cell-based; details: Homo sapiens
COLO 320DM = assay: In vitro antitumor activity against COLO 320DM cell line extracted form colon adenocarcinoma; assay type: functional, cell-based; details: Homo sapiens
HL-60 = assay: In vitro antitumor activity against HL-60 cell line extracted formpromyelocytic leukemia; assay type: functional, cell-based; details: Homo sapiens
HT-1080 = assay: In vitro antitumor activity against HT1080 cell line extracted form fibrosarcoma; assay type: functional, cell-based; details: Homo sapiens
Huh-7 = assay: In vitro antitumor activity against HuH7 cell line extracted form hepatoma; assay type: functional, cell-based; details: Homo sapiens
L1210 [1] = assay: In vitro antitumor activity using the incorporation of thymidine and uridine into DNA of L1210 cells at time 3 hr; assay type: functional, Mus musculus
L1210 [2] = assay: In vitro antitumor activity using the incorporation of thymidine and uridine into RNA of L1210 cells at time 2 hr; assay type: functional, Mus musculus
L1210 [3] = assay: In vitro antitumor activity using the incorporation of thymidine and uridine into DNA of L1210 cells at time 1 hr; assay type: functional, Mus musculus
L1210 [4] = assay: In vitro antitumor activity using the incorporation of thymidine and uridine into DNA of L1210 cells at time 2 hr; assay type: functional, Mus musculus
L1210 [5] = assay: In vitro antitumor activity using the incorporation of thymidine and uridine into RNA of L1210 cells at time 1 hr; assay type: functional, Mus musculus
L1210 [6] = assay: In vitro antitumor activity using the incorporation of thymidine and uridine into RNA of L1210 cells at time 3 hr; assay type: functional, Mus musculus
K562 = assay: In vitro antitumor activity against K562 cell line extracted formchronic myelogenous leukemia; assay type: functional, cell-based; details: Homo sapiens
MIA PaCa-2 = assay: In vitro antitumor activity against MiaPaCa-2 cell line extracted form pancreas adenocarcinoma; assay type: functional, cell-based; details: Homo sapiens
MCF7 = assay: In vitro antitumor activity against MCF-7 cell line extracted form mammary carcinoma; assay type: functional, cell-based; details: Homo sapiens
PANC-1 = assay: In vitro antitumor activity against PANC cell line extracted form pancreas adenocarcinoma; assay type: functional, cell-based; details: Homo sapiens
CCRF-CEM = assay: In vitro antitumor activity against CCRF-CEM cell line extracted form acute lymphoblastic leukemia; assay type: functional, cell-based; details: Homo sapiens

IC50 (A-375): 890 nM | IC50 (COLO 320DM): 8930 nM | IC50 (HL-60): 5760 nM | IC50 (HT-1080): 2530 nM | IC50 (Huh-7): 1470 nM | IC50 (K562): 2770 nM | IC50 (MIA PaCa-2): 4000 nM | IC50 (MCF7): 1300 nM | IC50 (PANC-1): 69100 nM | IC50 (CCRF-CEM): 1730 nM
Compound: Nc1ccn(C2OC(CO)[C@@H](O)[C@H]2NO)c(=O)n1 (stereo partly specified)
Inhibition (L1210 [1]): 95% | Inhibition (L1210 [2]): 20% | Inhibition (L1210 [3]): 83% | Inhibition (L1210 [4]): 98% | Inhibition (L1210 [5]): 21% | Inhibition (L1210 [6]): 23%
